Data from patent US11053204B2, “Pyrimidinyloxy benzene derivatives as herbicides” (FMC Corporation, priority 2015, dated 2021).

Key:
Format in all cases: in vivo
kochia (Kochia scoparia) [1] = assay: Test A preemergence, visual injury rating; conditions: Bassia scoparia, pre-emergence, 240 h, 0 to 100 scale (0 no effect, 100 complete control), read-out: Kochia plant response rating
Procedure, shortened: (§1)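 Pre- and postemergence greenhouse screen. Soil: loam + sand. Spray carrier: solvent mixture, non-phytotoxic, with surfactant. Post timing at 1–2 leaves, height 2–10 cm. Readout: visual injury on a 0–100 scale roughly 10 days after application, untreated plants as reference.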

[2] = tested on: ragweed (common ragweed, Ambrosia elatior); assay: Test A preemergence, visual injury rating; conditions: Ambrosia artemisiifolia, pre-emergence, 240 h, 0 to 100 scale (0 no effect, 100 complete control), read-out: Ragweed plant response rating
Procedure, shortened: as §1

[3] = tested on: Italian ryegrass (Lolium multiflorum); assay: Test A preemergence, visual injury rating; conditions: Lolium multiflorum, pre-emergence, 240 h, 0 to 100 scale (0 no effect, 100 complete control), read-out: Ryegrass, Italian plant response rating
Procedure, shortened: as §1

[4] = tested on: giant foxtail (Setaria faberii); assay: Test A preemergence, visual injury rating; conditions: Setaria faberi, pre-emergence, 240 h, 0 to 100 scale (0 no effect, 100 complete control), read-out: Foxtail, Giant plant response rating
Procedure, shortened: as §1

[5] = tested on: barnyardgrass (Echinochloa crus-galli); assay: Test A preemergence, visual injury rating; conditions: Echinochloa crus-galli, pre-emergence, 240 h, 0 to 100 scale (0 no effect, 100 complete control), read-out: Barnyardgrass plant response rating
Procedure, shortened: as §1

[6] = tested on: pigweed (Amaranthus retroflexus); assay: Test A preemergence, visual injury rating; conditions: Amaranthus retroflexus, pre-emergence, 240 h, 0 to 100 scale (0 no effect, 100 complete control), read-out: Pigweed plant response rating
Procedure, shortened: as §1

[7] = tested on: wheat (winter wheat, Triticum aestivum); assay: Test C postemergence, plant response rating; conditions: Triticum aestivum, post-emergence
Procedure, shortened: (§2)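 Pre-emergence: seeds sown in loam soil–sand blend or silt loam and sprayed with test chemicals in a non-phytotoxic solvent mixture with surfactant. Post-emergence: plants 2 to 18 cm (1- to 4-leaf stage) in peat-based potting medium, same formulation. Greenhouse 13 to 15 d; visual rating 0 (no effect) to 100 (complete control) versus controls.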

kochia (Kochia scoparia) [8] = assay: Test C postemergence, plant response rating; conditions: Bassia scoparia, post-emergence
Procedure, shortened: as §2

[9] = tested on: oilseed rape (Brassica napus); assay: Test C postemergence, plant response rating; conditions: Brassica napus, post-emergence
Procedure, shortened: as §2

corn (Zea mays) = assay: Test C postemergence, plant response rating; conditions: Zea mays, post-emergence
Procedure, shortened: as §2

[10] = tested on: morningglory (Ipomoea coccinea); assay: Test C postemergence, plant response rating; conditions: Ipomoea, post-emergence
Procedure, shortened: as §2

[11] = tested on: barnyardgrass (Echinochloa crus-galli); assay: Test C postemergence, plant response rating; conditions: Echinochloa crus-galli, post-emergence
Procedure, shortened: as §2

[12] = tested on: nutsedge, yellow (yellow nutsedge, Cyperus esculentus); assay: Test C postemergence, plant response rating; conditions: Cyperus, post-emergence
Procedure, shortened: as §2

[13] = tested on: blackgrass (Alopecurus myosuroides); assay: Test C postemergence, plant response rating; conditions: Alopecurus myosuroides, post-emergence
Procedure, shortened: as §2

[14] = tested on: crabgrass, large (large crabgrass, Digitaria sanguinalis); assay: Test C postemergence, plant response rating; conditions: Digitaria sanguinalis, post-emergence
Procedure, shortened: as §2

[15] = tested on: galium (catchweed bedstraw, Galium aparine); assay: Test C postemergence, plant response rating; conditions: Galium, post-emergence
Procedure, shortened: as §2

[16] = tested on: barnyardgrass (Echinochloa crus-galli); assay: Test B flooded paddy test, plant response rating; conditions: Echinochloa crus-galli, 312 h; 250 g ai/ha; Flood; scale of 0 to 100 where 0 is no effect and 100 is complete control; 13 to 15 days
Procedure, shortened: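 In-water treatment: compound dosed into 3 cm flood over soil, water level unchanged throughout. Controls run alongside; visual assessment at day 13–15.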

Structure (SMILES): CCCOC(=O)c1c(Br)cccc1Oc1ncc(Cl)cn1 [Compound 13, propyl 2-bromo-6-[(5-chloro-2-pyrimidinyl)oxy]benzoate]
- pest or weed control at 125 g/ha (kochia (Kochia scoparia) [1]; 125 g ai/ha): 90%
- pest or weed control at 500 g/ha (kochia (Kochia scoparia) [1]; 500 g ai/ha): 100%
- pest or weed control at 125 g/ha ([2]; 125 g ai/ha): 0%
- pest or weed control at 500 g/ha ([2]; 500 g ai/ha): 0%
- pest or weed control at 125 g/ha ([3]; 125 g ai/ha): 10%
- pest or weed control at 500 g/ha ([3]; 500 g ai/ha): 90%
- pest or weed control at 125 g/ha ([4]; 125 g ai/ha): 100%
- pest or weed control at 500 g/ha ([4]; 500 g ai/ha): 100%
- pest or weed control at 125 g/ha ([5]; 125 g ai/ha): 100%
- pest or weed control at 500 g/ha ([5]; 500 g ai/ha): 100%
- pest or weed control at 125 g/ha ([6]; 125 g ai/ha): 100%
- pest or weed control at 500 g/ha ([6]; 500 g ai/ha): 100%
- plant injury at 4 g/ha ([7]; 4 g ai/ha, scale of 0 to 100): 0%
- plant injury at 8 g/ha ([7]; 8 g ai/ha, scale of 0 to 100): 0%
- plant injury at 16 g/ha ([7]; 16 g ai/ha, scale 0 to 100): 0%
- plant injury at 31 g/ha ([7]; 31 g ai/ha, scale 0 to 100): 0%
- pest or weed control at 4 g/ha (kochia (Kochia scoparia) [8]; 4 g ai/ha, scale of 0 to 100): 0%
- pest or weed control at 8 g/ha (kochia (Kochia scoparia) [8]; 8 g ai/ha, scale of 0 to 100): 5%
- pest or weed control at 16 g/ha (kochia (Kochia scoparia) [8]; 16 g ai/ha, scale 0 to 100): 30%
- pest or weed control at 31 g/ha (kochia (Kochia scoparia) [8]; 31 g ai/ha, scale 0 to 100): 30%
- plant injury at 4 g/ha ([9]; 4 g ai/ha, scale of 0 to 100): 0%
- plant injury at 8 g/ha ([9]; 8 g ai/ha, scale of 0 to 100): 0%
- plant injury at 16 g/ha ([9]; 16 g ai/ha, scale 0 to 100): 0%
- plant injury at 31 g/ha ([9]; 31 g ai/ha, scale 0 to 100): 35%
- Corn plant response rating (crop injury, 0 = no effect, 100 = complete kill) at 4 g/ha (corn (Zea mays); 4 g ai/ha, scale of 0 to 100): 5%
- Corn plant response rating (crop injury, 0 = no effect, 100 = complete kill) at 8 g/ha (corn (Zea mays); 8 g ai/ha, scale of 0 to 100): 5%
- Corn plant response rating (crop injury, 0 = no effect, 100 = complete kill) at 16 g/ha (corn (Zea mays); 16 g ai/ha, scale 0 to 100): 10%
- Corn plant response rating (crop injury, 0 = no effect, 100 = complete kill) at 31 g/ha (corn (Zea mays); 31 g ai/ha, scale 0 to 100): 5%
- pest or weed control at 4 g/ha ([10]; 4 g ai/ha, scale of 0 to 100): 5%
- pest or weed control at 8 g/ha ([10]; 8 g ai/ha, scale of 0 to 100): 5%
- pest or weed control at 16 g/ha ([10]; 16 g ai/ha, scale 0 to 100): 20%
- pest or weed control at 31 g/ha ([10]; 31 g ai/ha, scale 0 to 100): 30%
- pest or weed control at 4 g/ha ([11]; 4 g ai/ha, scale of 0 to 100): 5%
- pest or weed control at 8 g/ha ([11]; 8 g ai/ha, scale of 0 to 100): 5%
- pest or weed control at 16 g/ha ([11]; 16 g ai/ha, scale 0 to 100): 10%
- pest or weed control at 31 g/ha ([11]; 31 g ai/ha, scale 0 to 100): 10%
- pest or weed control at 4 g/ha ([12]; 4 g ai/ha, scale of 0 to 100): 0%
- pest or weed control at 8 g/ha ([12]; 8 g ai/ha, scale of 0 to 100): 0%
- pest or weed control at 16 g/ha ([12]; 16 g ai/ha, scale 0 to 100): 5%
- pest or weed control at 31 g/ha ([12]; 31 g ai/ha, scale 0 to 100): 5%
- pest or weed control at 4 g/ha ([13]; 4 g ai/ha, scale of 0 to 100): 0%
- pest or weed control at 8 g/ha ([13]; 8 g ai/ha, scale of 0 to 100): 0%
- pest or weed control at 16 g/ha ([13]; 16 g ai/ha, scale 0 to 100): 0%
- pest or weed control at 31 g/ha ([13]; 31 g ai/ha, scale 0 to 100): 5%
- pest or weed control at 4 g/ha ([14]; 4 g ai/ha, scale of 0 to 100): 5%
- pest or weed control at 8 g/ha ([14]; 8 g ai/ha, scale of 0 to 100): 5%
- pest or weed control at 16 g/ha ([14]; 16 g ai/ha, scale 0 to 100): 5%
- pest or weed control at 31 g/ha ([14]; 31 g ai/ha, scale 0 to 100): 15%
- pest or weed control at 4 g/ha ([15]; 4 g ai/ha, scale of 0 to 100): 10%
- pest or weed control at 8 g/ha ([15]; 8 g ai/ha, scale of 0 to 100): 5%
- pest or weed control at 16 g/ha ([15]; 16 g ai/ha, scale 0 to 100): 65%
- pest or weed control at 31 g/ha ([15]; 31 g ai/ha, scale 0 to 100): 50%
- pest or weed control at 250 g/ha [16]: 0%
